Experiments:
C. albicans = test: Anti-septic power test (USP XX); type: cell-based, Candida albicans; conditions: test sample 0.002 wt %
Protocol: (§1) Solutions prepared according to the formulation set forth in Tables 10 and 11 below were subjected to anti-septic power test according to the method defined in Pharmacopoeia of the United States XX, 873 (1980). The solutions thus tested were then observed for anti-septic power after 1 hour, 4 hours, 24 hours, 7 days, 14 days, 21 days and 28 days. As test microorganisms, E. coli, P. auru. and S. Aureus were used as bacteria and A. niger and C. albicans were used as fungi. 4BAMP-6C and benzalkonium chloride were used as test samples.

S. aureus = test: Anti-septic power test (USP XX); type: cell-based, Staphylococcus aureus; conditions: test sample 0.002 wt %
Protocol: as §1

[1] = tested on: Aspergillus niger IFO 6431; test: Minimum development inhibiting concentration (MIC) against fungi; type: cell-based; conditions: A. niger; spore solution, 27° C. 1 week
Protocol: (§2) A sample fungus which had been pre-cultured was diluted with a wetting agent-containing sterilized water according to an ordinary broth dilution method to prepare a spore solution. 1 ml of the spore solution was then mixed with 1 ml of each of chemical solutions having concentrations which vary stepwise. The mixture was then cultured at a temperature of 27° C. in an incubator for 1 week. The culture was then examined for turbidity to see if the proliferation of fungus occurred. The minimum concentration at which no turbidity occurs was defined to be MIC.
(§3) Aspergillus niger IFO 6431 (A. niger) and Candida albicans ATCC10231 (C. albicans) were used as sample microorganisms.

[2] = tested on: Candida albicans ATCC10231; test: as above; type: cell-based; conditions: C. albicans; spore solution, 27° C. 1 week
Protocol: as §2, §3

[3] = tested on: Pseudomonas aeruginosa ATCC27583; test: MIC by agar plate dilution method; type: cell-based; conditions: P. aeruginosa, 37° C. 24 hours
Protocol: (§4) MIC value was determined by an agar plate dilution method according to the Law of Japanese Society of Chemotherapy. In some detail, a bacteria solution in stationary state which had been adjusted with a nutrient broth such that the concentration of bacterial suspension reached 10^6 cell/ml was added to agar culture media containing chemical solutions having concentrations which vary in two stages where it was then allowed to stand at a temperature of 37° C. for 24 hours for culture. The bacteria solution was then examined to see if the proliferation of bacteria occurred. Thus, MIC was determined.
(§5) The following three kinds of bacteria were used as sample bacteria:
Pseudomonas aeruginosa ATCC27583 (P. auruginosa); and […]

[4] = tested on: Bacillus substilis ATCC 6633; test: Minimum bactericidal concentration (MBC) against bacteria; type: cell-based, Bacillus subtilis; conditions: contact 30° C. 30 minutes, culture 37° C. 24 hours
Protocol: A bacteria solution in the initial stage of logarithmic productive phase which had been adjusted with a nutrient broth according to an ordinary sterilized water dilution method such that the concentration of bacterial suspension reached 10^6 cell/ml was brought into contact with chemical solutions having concentrations which vary stepwise at a temperature of 30° C. for 30 minutes, and then transplanted to a nutrient broth where it was then allowed to stand at a temperature of 37° C. for 24 hours for culture. The nutrient broth was then examined to see if the proliferation of bacteria occurred. Thus, MBC was determined.
Five kinds of gram-negative bacteria and four kinds of gram-positive bacteria were used as sample bacteria.
BAMP-6 (Example 12), BAMD-6,8 (Example 13), BAMT-6 (Example 17) and benzalkonium chloride (Comparative Example 1) were determined for MBC value against 5 kinds of gram-negative bacteria and 4 kinds of gram-positive bacteria in the same manner as in Test Example 1.

E. coli = test: Anti-septic power test (USP XX); type: cell-based, Escherichia coli; conditions: test sample 0.002 wt %
Protocol: as §1

P. aeruginosa = test: Anti-septic power test (USP XX); type: cell-based, Pseudomonas aeruginosa; conditions: test sample 0.002 wt %
Protocol: as §1

[5] = tested on: Escherichia coli K12 W 3110; test: MIC by agar plate dilution method; type: cell-based; conditions: E. coli, 37° C. 24 hours
Protocol: as §4, §5
Escherichia coliK12 W 3110 (E. coli);

[6] = tested on: Staphylococcus aureus IFO 12732; test: MIC by agar plate dilution method; type: cell-based; conditions: S. aureus, 37° C. 24 hours
Protocol: as §4, §5
Staphylococcus aureus IFO 12732 (S. aureus)

[7] = tested on: Escherichia coli K12 W 3110; test: Minimum development inhibiting concentration (MIC) against bacteria, broth dilution method; type: cell-based; conditions: 37° C. 24 hours
Protocol: A bacteria solution in stationary state which had been adjusted with a nutrient broth according to an ordinary broth dilution method such that the concentration of bacterial suspension reached 10^6 cell/ml was added to chemical solutions having concentrations which vary stepwise where it was then allowed to stand at a temperature of 37° C. for 24 hours for culture. The bacteria solution was then examined to see if the proliferation of bacteria occurred. Thus, MIC was determined.
Escherichia coli K12 W 3110 was used as a sample bacterium. Compounds obtained in Examples 1 to 9 and benzalkonium chloride prepared in Comparative Example 1 were used as test samples.
The compounds obtained in Examples 10 to 19 and benzalkonium chloride were determined for MIC value against Escherichia coli K12 W 3110 in the same manner as in Test Example 3.

[8] = Interaction with eye drop components (visual transparency); type: physicochemical; conditions: for Results (transparency of neutralized solution): in 1% sodium chloride solution
Protocol: Eye drop components and the preservative of the invention were dissolved in a 1% sodium chloride solution. The solution was then neutralized with a proper amount of diluted hydrochloric acid or sodium hydroxide. The neutralized solution thus obtained was then visually observed for transparency. Chondroitin sodium sulfate (hereinafter abbreviated as “SKA”), sodium hyaluronate (hereinafter abbreviated as “SHA”), sodium cromoglicate (hereinafter abbreviated as “SCA”), sodium dimethylisopropylazulenesulfonate (hereinafter abbreviated as “SDPA”), and flavin-adenine dinucleotide (hereinafter abbreviated as “FA”) were used as the eye drop components. 4BAMP-6C (Example 1) and benzalkonium chloride (Comparative Example 1) were used as test samples of preservative.

A. niger = test: Anti-septic power test (USP XX); type: cell-based, Aspergillus niger; conditions: test sample 0.002 wt %
Protocol: as §1

[9] = Formulation 1 (chondroitin sodium sulfate 1 wt %)

Substance: 1,4-bis(N,N-dihexyl-N-methylammoniomethyl)phenylene dichloride [Example 4BAMP-6C]
- time at which the desired anti-septic effect was confirmed (C. albicans; [9]): 7 days
- time at which the desired anti-septic effect was confirmed (C. albicans; Formulation 2 (taurin 1 wt %)): 7 days
- time at which the desired anti-septic effect was confirmed (S. aureus; [9]): 1 h
- time at which the desired anti-septic effect was confirmed (S. aureus; Formulation 2 (taurin 1 wt %)): 1 h
- MIC [1]: 16 ppm
- MIC [2]: 4 ppm
- MIC [3]: <2 ppm
- MBC [4]: <2 ppm
- time at which the desired anti-septic effect was confirmed (E. coli; [9]): 1 h
- time at which the desired anti-septic effect was confirmed (E. coli; Formulation 2 (taurin 1 wt %)): 1 h
- time at which the desired anti-septic effect was confirmed (P. aeruginosa; [9]): 1 h
- time at which the desired anti-septic effect was confirmed (P. aeruginosa; Formulation 2 (taurin 1 wt %)): 1 h
- MIC [5]: 8 ppm
- MIC [6]: <2 ppm
- MIC Escherichia coli K12 W 3110 [7]: 2 ppm
- Results (transparency of neutralized solution) ([8]; FA 0.1%, 4BAMP-6C 0.1%): Transparent
- Results (transparency of neutralized solution) ([8]; SCA 3%, 4BAMP-6C 0.1%): Transparent
- Results (transparency of neutralized solution) ([8]; SDPA 0.05%, 4BAMP-6C 0.1%): Transparent
- Results (transparency of neutralized solution) ([8]; SHA 0.2%, 4BAMP-6C 0.1%): Transparent
- Results (transparency of neutralized solution) ([8]; SKA 3%, 4BAMP-6C 0.1%): Transparent
- time at which the desired anti-septic effect was confirmed (A. niger; [9]): 7 days
- time at which the desired anti-septic effect was confirmed (A. niger; Formulation 2 (taurin 1 wt %)): 14 days

Substance: benzalkonium chloride [reference compound]
- time at which the desired anti-septic effect was confirmed (C. albicans; [9]): 21 days
- time at which the desired anti-septic effect was confirmed (C. albicans; Formulation 2 (taurin 1 wt %)): 21 days
- time at which the desired anti-septic effect was confirmed (S. aureus; [9]): 4 hrs. hr.
- time at which the desired anti-septic effect was confirmed (S. aureus; Formulation 2 (taurin 1 wt %)): 4 hrs. hr.
- MIC [1]: 32 ppm
- MIC [2]: 16 ppm
- MIC [3]: 8 ppm
- MBC [4]: 4 ppm
- time at which the desired anti-septic effect was confirmed (E. coli; [9]): 24 hrs. hr.
- time at which the desired anti-septic effect was confirmed (E. coli; Formulation 2 (taurin 1 wt %)): 24 hrs. hr.
- time at which the desired anti-septic effect was confirmed (P. aeruginosa; [9]): 24 hrs. hr.
- time at which the desired anti-septic effect was confirmed (P. aeruginosa; Formulation 2 (taurin 1 wt %)): 24 hrs. hr.
- MIC [5]: 32 ppm
- MIC [6]: 16 ppm
- MIC Escherichia coli K12 W 3110 [7]: 8 ppm
- Results (transparency of neutralized solution) ([8]; FA 0.1%, benzalkonium chloride 0.01%): Clouded
- Results (transparency of neutralized solution) ([8]; SCA 3%, benzalkonium chloride 0.01%): Clouded
- Results (transparency of neutralized solution) ([8]; SDPA 0.05%, benzalkonium chloride 0.01%): Clouded
- Results (transparency of neutralized solution) ([8]; SHA 0.2%, benzalkonium chloride 0.01%): Clouded
- Results (transparency of neutralized solution) ([8]; SKA 3%, benzalkonium chloride 0.01%): Clouded
- transparency of solutions with eye drop components ([8]; summary of Table 9): slightly opaque
- time at which the desired anti-septic effect was confirmed (A. niger; [9]): 28 days
- time at which the desired anti-septic effect was confirmed (A. niger; Formulation 2 (taurin 1 wt %)): 28 days
